Reference: PMC3355656 (2012)

Biological target: CDK9 (Homo sapiens, UniProt P50750)
Experiment: DSF thermal shift
Format: binding

Chain of CDK9 (P50750 1-330): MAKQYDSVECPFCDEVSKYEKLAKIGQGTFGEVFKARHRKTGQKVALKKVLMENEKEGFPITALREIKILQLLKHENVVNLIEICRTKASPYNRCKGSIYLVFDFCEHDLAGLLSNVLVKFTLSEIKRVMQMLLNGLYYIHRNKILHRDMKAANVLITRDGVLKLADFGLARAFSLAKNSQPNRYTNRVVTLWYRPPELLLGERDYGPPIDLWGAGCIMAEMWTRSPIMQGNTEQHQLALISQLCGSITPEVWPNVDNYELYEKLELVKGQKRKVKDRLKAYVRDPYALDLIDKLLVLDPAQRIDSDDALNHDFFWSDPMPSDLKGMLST
Chain of CDK9 (O60563 1-259 partner): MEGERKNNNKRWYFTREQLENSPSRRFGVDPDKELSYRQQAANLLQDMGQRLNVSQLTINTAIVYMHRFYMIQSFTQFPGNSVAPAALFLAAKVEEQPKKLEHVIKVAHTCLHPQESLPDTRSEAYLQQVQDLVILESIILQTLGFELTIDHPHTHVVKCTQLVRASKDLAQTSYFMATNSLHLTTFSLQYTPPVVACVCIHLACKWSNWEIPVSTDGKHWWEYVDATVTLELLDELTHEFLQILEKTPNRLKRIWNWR

OC[C@H]1O[C@@H](n2cnc3cc(Cl)c(Cl)cc32)[C@H](O)[C@@H]1O [DRB]
DSF thermal shift (no Kd): we tested the ability of known CDK9 inhibitors (DRB, CAN508, (S)-CR8, Roscovitine, Staurosporine
